Test results from patent US9816074B2, “Methods and compositions for modulating nuclease-mediated genome engineering in hematopoietic stem cells” (Sangamo BioSciences, Inc., priority 2014, dated 2017).
Read-outs that look alike come from different tables or passages of the source.

Experiments:
Format in all cases: cell-based
[1] = test system: Human mPB CD34+ cells; test: Cell viability by flow cytometry in the presence of propidium iodide
Description: (§1) No change in culture cell density was seen after VPA addition compared to controls in genome modified mPB HSPCs (FIG. 6F).
(§2) Human mPB CD34+ cells were cultured ex vivo in CC110 media with or without 100 ng/mL IL-6 in the presence of VPA (1.25 mM or 2.5 mM) and 5 mM lithium chloride (Li) for 4 (blue lines—added at 4 days post thawing of the cells) or 7 days (red line—added at 1 day post thawing).

[2] = test system: Human mPB CD34+ cells; test: Methylcellulose assays (colony forming units) on CD34+ cell cultures
[3] = test system: Human mPB CD34+ cells; test: Cell density / proliferative capacity in culture; conditions: for cell density / growth (FIG. 3F): extended culture, 17 days
Description: as §1
The presence of IL-6 was capable of enhancing the expression of CD49f with extended culture. […]

[4] = test system: Human mPB CD34+ cells; test: Flow cytometry of HSPC multipotency markers (CD34, CD133, CD90, CD49f, CD166, CD38, CD45RA); conditions: for CD90 expression (FIG. 3A): dmPGE2 10 μM, SR1 1 μM, 17 days, addition 1 day post thawing; for CD49f expression (FIG. 3C) / CD133 expression (FIG. 3B): compared to controls, 17 day culture; for CD34 expression compared to controls (FIG. 3D): for the duration of the experiment (17 days); for CD90 expression (percent of CD90+ cells, FIG. 2A): nicotinamide 2.5 mM, TEPA 5 μM, addition at 1 day post thawing, vs control
Description: Human mPB CD34+ cells were cultured ex vivo in CC110 media for 3 days with or without VPA, nicotinamide or TEPA. Various cell surface markers are enriched on CD34+ subpopulations that contain true LT-HSCs. Measurement of such cell surface markers can therefore be used as a proxy for the number of LT-HSCs in the culture. In particular, CD90, CD133, CD49f, CD38, and CD166 can be used to assay LT-HSC number (Notta et al. (2011) Science 333(6039):218-21; Chitteti et al. (2014) Blood 124(4):519-29), with the LT-HSCs generally residing in the CD90+CD133+CD49f+CD38-low CD166+ pool. Accordingly, cells were stained using fluorescently-tagged antibodies against the HSPC multipotency markers CD34 (PE-Cy7), CD133 (PE), CD90 (APC), and CD49f (PerCP) and analyzed by flow cytometry.
Human mPB CD34+ cells were cultured ex vivo in CC110 media for 17 days. Cells were then stained using fluorescently-tagged antibodies against the HSPC multipotency markers CD34 (PE-Cy7), CD133 (PE), CD90 (APC), and CD49f (PerCP) and analyzed by flow cytometry as described above.
Human mPB-derived cells were cultured as described above in the presence or absence of VPA (1.25 mM) and 5 mM lithium chloride (Li) and cells assayed for primitive cell surface markers as described above.
CD34+ cells were cultured ex vivo in CC110 media with 100 ng/mL IL-6 for 8 days in the presence or absence of VPA, lithium, nucleases and donors. VPA and Li were added prior to nucleases and/or donors (which can be added in any order). Briefly, CD34+ cells were thawed and cultured for approximately […] before addition of VPA and Li and cultured again (e.g., 1-2 days) before addition of a donor. Nucleases (e.g., ZFN mRNA) were added 0.5 to 1 day later and VPA/Li washed out at the same time. After at least a day, cells were then stained using fluorescently-tagged antibodies against the HSPC multipotency markers CD34 (PE-Cy7), CD133 (PE), CD90 (APC), and CD49f (PerCP) and analyzed by flow cytometry.
CD34+ cells were cultured ex vivo in CC110 media as described above for approximately 6 days in the presence or absence of VPA, lithium, nucleases and donors. VPA and Li were added after to nucleases and/or donors (which can be added in any order). Briefly, CD34+ cells were thawed and cultured for approximately 2-3 days before addition of a donor. Nucleases (e.g., ZFN mRNA) were added 0.5 to 1 day after transfection with the donor. The donor was a SA-IL2RG partial corrective cDNA transgene at IL2RG intron 1 and the zinc-finger nucleases (ZFN) were SBS #s 44271/44298 delivered by BTX electroporation. VPA/Li was added 1 day after addition of the ZFN mRNA. After approximately 3 days, cells were then stained using fluorescently-tagged antibodies against the HSPC multipotency markers CD34 (PE-Cy7), CD133 (PE), CD90 (APC), and CD49f (PerCP) and analyzed by flow cytometry.
as §2
The presence of IL-6 was capable of enhancing the expression of CD49f with extended culture. […] In a further experiment, human mPB CD34+ cells were cultured ex vivo in CC110 media in the presence of VPA (1.25 mM) plus LiCl (5 mM) with or without 100 ng/mL IL-6 for 7 days.
After 7 days in culture cells were stained using fluorescently-tagged antibodies against the HSPC multipotency marker CD166 (PE) and analyzed by flow cytometry. VPA+Li increased the overall fraction of CD166+ cells.
Human mPB CD34+ cells were cultured ex vivo in CC110 media with 100 ng/mL IL-6 in the presence or absence of VPA (1.25 mM) plus LiCl (5 mM) for 6 days.

[5] = test system: CD34+ cells; test: CRISPR/Cas nuclease modification with VPA (as Example 3, CRISPR/Cas in place of ZFNs); conditions: introduced before, concurrently and/or after the CRISPR/Cas nuclease systems
Description: Experiments are conducted as described in Example 3 using CRISPR/Cas nucleases in place of ZFNs (e.g., specific for any gene such as IL2, HPRT, etc.), with and without donors.

[6] = 14 days of in vitro differentiation
[7] = compared to controls after 14 days of in vitro differentiation
[8] = VPA 1.25 mM added 1 day post thawing

In the case of `CC(C)n1cnc2c(NCCc3ccc(O)cc3)nc(-c3csc4ccccc34)nc21` [SR1, StemRegenin 1], the “cell viability (FIG. 3E)” value [1] is reported as “no effect on cell viability”, the “erythroid burst-forming units (BFU-E)” value [2, 6] is reported as “increased” and the “granulocyte and megakaryocyte colony-forming units (CFU-GM)” value [2, 6] is reported as “increased”. For the same compound, the “cell density / growth (FIG. 3F)” value [3] was “slight growth advantage”, the “CD90 expression (FIG. 3A)” value ([4]; VPA 1.25 mM, CC110 media) was “No effect” and the “CD49f expression (FIG. 3C)” value [4] was “increased expression compared to both controls and VPA after 17 days in culture”. The “CD133 expression (FIG. 3B)” value [4] was “decreased expression”, the “CD34 expression compared to VPA (FIG. 3D)” value ([4]; extended culture) was “higher expression” and the “CD34 expression compared to controls (FIG. 3D)” value [4] was “retained elevated CD34 expression”.
In the case of `NCCNCCNCCNCCN` [TEPA, tetraethylenepentamine], the “CD90 expression (percent of CD90+ cells, FIG. 2A)” value ([4]; VPA 1.25 mM) is reported as “No effect”.
For “IL-6: cytokine added to CC110 media at 100 ng/mL”, the “overall cell density with or without IL-6” value ([3]; 100 ng/mL IL-6, VPA+Li cultures) was “higher overall cell density in the absence of IL-6”, the “VPA-increased HSC multipotency marker expression in the presence of IL-6” value ([4]; 100 ng/mL IL-6) was “enhanced” and the “expression of CD49f in the presence of IL-6” value ([4]; 100 ng/mL IL-6, extended culture with VPA+Li) was “enhancing”.
`CCCC(CCC)C(=O)O` [VPA, valproic acid] was tested, and the “CRISPR/Cas induced nuclease modification” value [5] was “enhances”, the “cell viability (FIG. 3E)” value [1] was “no loss of cell viability” and the “cell viability after VPA addition compared to controls (FIG. 6E)” value [1] was “no increased loss of cell viability”. The “overall cell viability with VPA” value [1] was “slightly lower viability”, the “recovery of cell viability following VPA administration” value [1] was “initial delay in recovery” and the “viability after VPA addition, before genome modification (FIG. 5E)” value [1] was “no decrease in viability”. For the same compound, the “viability after genome modification (FIG. 5E)” value [1] was “significant viability loss”, the “viability after genome modification (FIG. 6E)” value [1] was “significant loss of viability” and the “myeloid or erythroid differentiation capacity (FIG. 2C)” value [2, 7] was “no significant difference”. The “myeloid or erythroid differentiation capacity (FIGS. 3G and 3H)” value [2, 7] was “no significant difference”, the “cell growth, VPA at day 4 compared to day 1” value [3] was “cell growth advantage” and the “cell growth potential at 2.5 mM VPA” value ([3]; 2.5 mM VPA) was “decreased cell growth potential”. For the same compound, the initial proliferative capacity ([3]; Example 6, VPA administration) was “slightly decreased proliferative capacity”, the “proliferative capacity after 7 days in culture” value ([3]; Example 6, VPA administration) was “recovered” and the “culture cell density (FIG. 6F)” value ([3]; after VPA addition compared to controls, genome modified mPB HSPCs) was “No change”. For the same compound, the “cell density / growth (FIG. 3F)” value [3] was “slightly decreased proliferative capacity”, the “cell growth at lower doses of VPA” value ([3]; lower doses than 2.5 mM) was “did not affect cell growth as substantially” and the “level of CD90 expression, VPA added at day 1 vs day 4” value [4] was “higher level”. The “marker expression after VPA washout and genome modification” value ([4]; Example 3C) was “retained high CD90, CD34, CD133 and CD49f expression”, the “CD49f expression compared to controls” value ([4]; VPA 1.25 mM + LiCl 5 mM, 7 days) was “increased” and the “time to peak of CD90 expression after addition (FIG. 2A)” value [4, 8] was no more than 2 days. For the same compound, the “time to peak of CD90 expression after addition (FIG. 3A)” value [4, 8] was no more than 2 days, the “CD90 expression (FIG. 3A)” value ([4]; VPA 1.25 mM, CC110 media) was “dramatically increased” and the “CD90 expression (percent of CD90+ cells, FIG. 2A)” value ([4]; VPA 1.25 mM) was “dramatically increased”. The “fraction of CD34+CD133+CD90+CD49f+ cells” value ([4]; VPA 1.25 mM, CC110 media, 3 days, controls 14.4%) was 85.9%, the “proportion of CD34+CD133+ cells” value ([4]; VPA 1.25 mM, CC110 media, 3 days, controls 51.7%) was 93.1% and the “level of CD133, CD90 and CD49f expression, VPA added at day 1 vs day 4” value ([4]; VPA + 5 mM Li) was “higher level”. For the same compound, the “marker expression after VPA washout and genome modification” value ([4]; addition after extended culture (Example 3B)) was “retained high CD90, CD34, CD133 and CD49f expression”, the “CD49f expression (FIG. 3C)” value [4] was “increased CD49f expression for up to 15 days” and the “CD133 expression (FIG. 3B)” value [4] was “increased”. For the same compound, the “fraction of cells unresponsive to VPA stimulation between days 1 and 4 post thawing (CD133, CD90 and CD49f expression)” value ([4]; day 1 vs day 4 addition) was roughly 15%, the “fraction of cells unresponsive to VPA stimulation between days 1 and 4 post thawing, CD49f” value ([4]; day 1 vs day 4 addition) was roughly 15% and the “fraction of cells unresponsive to VPA stimulation between days 1 and 4 post thawing, CD90” value ([4]; day 1 vs day 4 addition) was roughly 20%. For the same compound, the “fraction of cells unresponsive to VPA stimulation between days 1 and 4 post thawing, CD133” value ([4]; day 1 vs day 4 addition) was roughly 15%, the “CD34 expression, VPA added at day 1 vs day 4 post-thawing” value ([4]; extended culture) was “increased CD34 expression” and the “CD34 expression compared to controls (FIG. 3D)” value [4] was “retained elevated CD34 expression”. For the same compound, the “dose dependence of CD49f expression” value ([4]; increasing VPA) was “No significant dose dependence”, the “dose dependence of CD90 expression” value ([4]; increasing VPA) was “dose dependence” and the “dose dependence of CD34 expression” value ([4]; increasing VPA doses (1.25 mM, 2.5 mM)) was “slight dose dependence”.
For `NC(=O)c1cccnc1` [nicotinamide], the “CD90 expression (percent of CD90+ cells, FIG. 2A)” value ([4]; VPA 1.25 mM) was “No effect”.
In the case of `CCCCC(C)(C)[C@H](O)/C=C/[C@H]1[C@H](O)CC(=O)[C@@H]1C/C=C\CCCC(=O)O` [dmPGE2, 16,16-dimethyl Prostaglandin E2], the “cell viability (FIG. 3E)” value ([1]; extended culture, 17 days) is reported as “no effect on cell viability”, the “cell density / growth (FIG. 3F)” value [3] is reported as “slight growth advantage” and the “CD90 expression (FIG. 3A)” value ([4]; VPA 1.25 mM, CC110 media) is reported as “No effect”.
